Experimental data reported in ChEMBL document CHEMBL1146356, “Lactotriaose-containing carbosilane dendrimers: syntheses and lectin-binding activities” (Bioorg Med Chem, 2007).

Experiments:
Triticum aestivum [1] = assay: Binding affinity to wheat germ agglutinin relative to Monovalent
Triticum aestivum [2] = assay: Binding affinity to wheat germ agglutinin

| Activity (Triticum aestivum [1]) | Ka (Triticum aestivum [2]) | SMILES |
| --- | --- | --- |
| 2500 | 2.8 10^6/M | CC(=O)N[C@H]1[C@H](O[C@H]2[C@@H](O)[C@@H](CO)O[C@@H](O[C@@H]3[C@@H](O)[C@H](O)C(OCCCCCSCCC[Si](CCCSCCCCCOC4O[C@@H](CO)[C@H](O[C@@H]5O[C@H](CO)[C@H](O)[C@H](O[C@@H]6O[C@H](CO)[C@@H](O)[C@H](O)[C@H]6NC(C)=O)[C@H]5O)[C@@H](O)[C@@H]4O)(CCCSCCCCCOC4O[C@@H](CO)[C@H](O[C@@H]5O[C@H](CO)[C@H](O)[C@H](O[C@@H]6O[C@H](CO)[C@@H](O)[C@H](O)[C@H]6NC(C)=O)[C@H]5O)[C@@H](O)[C@@H]4O)CCC[Si](C)(C)CCC[Si](CCCSCCCCCOC4O[C@@H](CO)[C@H](O[C@@H]5O[C@H](CO)[C@H](O)[C@H](O[C@@H]6O[C@H](CO)[C@@H](O)[C@H](O)[C@H]6NC(C)=O)[C@H]5O)[C@@H](O)[C@@H]4O)(CCCSCCCCCOC4O[C@@H](CO)[C@H](O[C@@H]5O[C@H](CO)[C@H](O)[C@H](O[C@@H]6O[C@H](CO)[C@@H](O)[C@H](O)[C@H]6NC(C)=O)[C@H]5O)[C@@H](O)[C@@H]4O)CCCSCCCCCOC4O[C@@H](CO)[C@H](O[C@@H]5O[C@H](CO)[C@H](O)[C@H](O[C@@H]6O[C@H](CO)[C@@H](O)[C@H](O)[C@H]6NC(C)=O)[C@H]5O)[C@@H](O)[C@@H]4O)O[C@H]3CO)[C@@H]2O)O[C@H](CO)[C@@H](O)[C@@H]1O (stereo not given in full) |
|  | 1.1 10^3/M | CC(=O)N[C@H]1[C@H](O[C@H]2[C@@H](O)[C@@H](CO)O[C@@H](O[C@@H]3[C@@H](O)[C@H](O)C(O)O[C@H]3CO)[C@@H]2O)O[C@H](CO)[C@@H](O)[C@@H]1O (stereo not given in full) |
| 1200 | 1.3 10^6/M | CC(=O)N[C@H]1[C@H](O[C@H]2[C@@H](O)[C@@H](CO)O[C@@H](O[C@@H]3[C@@H](O)[C@H](O)C(OCCCCCSCCC[Si](CCCSCCCCCOC4O[C@@H](CO)[C@H](O[C@@H]5O[C@H](CO)[C@H](O)[C@H](O[C@@H]6O[C@H](CO)[C@@H](O)[C@H](O)[C@H]6NC(C)=O)[C@H]5O)[C@@H](O)[C@@H]4O)(CCCSCCCCCOC4O[C@@H](CO)[C@H](O[C@@H]5O[C@H](CO)[C@H](O)[C@H](O[C@@H]6O[C@H](CO)[C@@H](O)[C@H](O)[C@H]6NC(C)=O)[C@H]5O)[C@@H](O)[C@@H]4O)CCC[Si](CCCSCCCCCOC4O[C@@H](CO)[C@H](O[C@@H]5O[C@H](CO)[C@H](O)[C@H](O[C@@H]6O[C@H](CO)[C@@H](O)[C@H](O)[C@H]6NC(C)=O)[C@H]5O)[C@@H](O)[C@@H]4O)(CCCSCCCCCOC4O[C@@H](CO)[C@H](O[C@@H]5O[C@H](CO)[C@H](O)[C@H](O[C@@H]6O[C@H](CO)[C@@H](O)[C@H](O)[C@H]6NC(C)=O)[C@H]5O)[C@@H](O)[C@@H]4O)CCC[Si](CCSCCCCCOC4O[C@@H](CO)[C@H](O[C@@H]5O[C@H](CO)[C@H](O)[C@H](O[C@@H]6O[C@H](CO)[C@@H](O)[C@H](O)[C@H]6NC(C)=O)[C@H]5O)[C@@H](O)[C@@H]4O)(CCSCCCCCOC4O[C@@H](CO)[C@H](O[C@@H]5O[C@H](CO)[C@H](O)[C@H](O[C@@H]6O[C@H](CO)[C@@H](O)[C@H](O)[C@H]6NC(C)=O)[C@H]5O)[C@@H](O)[C@@H]4O)CCSCCCCCOC4O[C@@H](CO)[C@H](O[C@@H]5O[C@H](CO)[C@H](O)[C@H](O[C@@H]6O[C@H](CO)[C@@H](O)[C@H](O)[C@H]6NC(C)=O)[C@H]5O)[C@@H](O)[C@@H]4O)O[C@H]3CO)[C@@H]2O)O[C@H](CO)[C@@H](O)[C@@H]1O (stereo not given in full) |
